System: biofilm
Test: confocal laser scanning microscopy (CLSM) of biofilm thickness
Format: cell-based, halitosis subjects (saliva)
Protocol: (§1) Lysate group: A HA disc was placed in a 96-well plate. 10 µl of saliva was added to the 96-well plate, followed by separate addition of ET-22 viable bacteria (1.0×10^9 CFU/ml), ET-22 heat-inactivated bacterial cells (obtained by inactivating viable bacteria at 1.0×10^9 CFU/ml), and lysate (obtained by inactivating and filtering viable bacteria at 1.0×10^9 CFU/ml), each at 10 µl. Then, 80 µl of SHI medium was added. The 96-well plate was placed in an anaerobic box and cultured anaerobically at 37°C for 10 hours.
as §1, with “NAD” for “Lysate”, “heat-inactivating” for “inactivating”, “NAD (100 µg/ml),” for “lysate (obtained by inactivating and filtering viable bacteria at 1.0×10^9 CFU/ml),”
2-hydroxy-3-phenylpropionic acid group: A HA disc was placed in a 96-well plate. 10 µl of saliva was added to the 96-well plate, followed by separate addition of ET-22 viable bacteria (1.0×10^9 CFU/ml), ET-22 heat-inactivated bacterial cells (obtained by heat-inactivating viable bacteria at 1.0×10^9 CFU/ml), and 2-hydroxy-3-phenylpropionic acid (100 µg/ml), each at 10 µl. Then, 80 µl of SHI medium was added. […]

**Q.** Which biofilm thickness (compared with CK group, HA disc, pure components 100 µg/ml, others from 1.0×10^9 CFU/ml, 37°C 10 hours) does the source give for `O=C(O)C(O)Cc1ccccc1` (centres unmarked) [2-hydroxy-3-phenylpropionic acid] here?
**A.** Its biofilm thickness is “significantly reduce the biofilm thickness”.

**Q.** What about the “intervention effect on biofilm thickness” value (relative to ET-22 viable bacteria and ET-22 heat-inactivated bacteria) of the same molecule?
**A.** Its value is “superior”.

Source: patent EP4772186A1, “USE AND COMPOSITION OF POSTBIOTIC OF LACTOBACILLUS PARACASEI ET-22” (Inner Mongolia Yili Industrial Group Co., Ltd., priority 2023, dated 2025)
